From patent US12649734B2, “Bioavailable protein disulfide isomerase inhibitors” (THE CLEVELAND CLINIC FOUNDATION, priority 2020, dated 2026)

How the values were obtained:
[1] = test system: RPMI-8226 cells vs CD34+ HSPCs derived from healthy bone marrow; assay: In vitro colony-forming assay, myeloma cells versus normal bone marrow CD34+ cells; format: cell-based, human; conditions: colonies scored on day 14
Procedure: In vitro colony-forming assays: Mononuclear cells derived from bone marrow or purified CD34+ cells from a healthy donor, cord blood, or MM cell RPMI-8226 were grown in semi-solid methylcellulose media (MethoCult™, H4435; STEMCELL Technologies) in the presence of indicated compounds and concentrations. A total of 10,000/mL normal bone marrow CD34+ cells and 1000/mL RPMI-8226 cells were plat-ed, and colonies were scored on day 14.

[2] = test system: MM1.S cells; assay: RNA-seq gene expression profiling; format: cell-based, human; conditions: 3 μM, 6 h
Procedure: FIGS. 7A-7H provide graphs showing CCF642-34 is selective for PDIA1 inhibition-induced ER stress response pathway. MM1.S cells were treated with 3 μM of either CCF642 or CCF642-34 for 6 h, and gene expression analysis was performed by RNA sequencing. (A,B) Volcano plots showing CCF642-34 and CCF642 compared to DMSO control. The criteria for differential expression were at least a 2-fold change with p value less than 0.05. The analysis was performed in Originlab, Version 2019b (OriginLab Corporation, Northampton, MA, USA). […] The diagram was generated using a web-based bioinformatics server. (D,E) Hierarchical clusterings with heat map of MM1.S cells treated with vehicle CCF642-34 or CCF642 are shown for response to endoplasmic reticulum stress and unfolded protein response gene sets. (F-H) Heat maps of PERK and ATF6 target genes, Nrf2, and ER-associated degradation (ERAD) pathways are compared between control and inhibitor-treated MM1.S cells. Data analysis was performed using a web-based server and the Broad Institute Morpheus software.
RNA-seq and analysis: MM1.S cells were treated with 3 μM of either CCF642 or CCF642-34 for 6 h, and RNA was purified by using the NucleoSpin RNA kit (Takara Bio USA, Inc.; cat. #740955) according to the manufacturer's instruction. The RNA sequencings were completed as reported previously. Guan et al., Commun. Biol., 3, 1-13 (2020) The RNA-seq data were sub-mitted to the Gene Expression Omnibus (GEO) repository at the National Center for Biotechnology Information (NCBI) archives, with assigned GEO accession number GSE167097.

[3] = biological target: PDIA1 (Homo sapiens, UniProt P07237); assay: Target validation in cells with biotinylated analogues (streptavidin blot, pull down, LCMS); format: cell-based; conditions: streptavidin blot and pull down of treated MM1.S cells
Procedure: FIGS. 4A-4G provide graphs and images showing that model-based design improves potency and selectivity of protein disulfide isomerase A1 (PDIA1) inhibitors. (A) Ribbon diagram of CCF642-34 docked onto PDIA1. (B) Two-dimensional structure of modified CCF642 pharmacophore, where R represents amino acids tryptophan, tyrosine, phenylalanine, histidine, proline, or alanine. (C) PDIA1/PH4B activity assay was performed in the absence or presence of CCF642 or (D) CCF642-34. In time-dependent inhibition of di-E-GSSG, reduction was monitored for 1 h by the increase in fluorescence, and the relative fluorescence unit was plotted as a function of time. (E-F) The observed rate constant for inhibition, kobs, at each concentration determined from the slope of kinetic data presented in panel C and D. The kobs values are re-plotted against inhibitor concentration and fitted to a hyperbolic equation, kobs=k2[I]/(Ki+[I]), to obtain values for Ki and k2 in GraphPad Prism v8.0.2. The concentration of drug is indicated on each curve, for (E) 642 and (F) CCF642-34. (G) Target validation. […]
Mass spectrometry: Tryptic peptide mixtures were analyzed by online LC-coupled tandem mass spectrometry (LCMS/MS) on an Orbitrap mass spectrometer (Thermo Fisher) as described previously. […] A peak list was created for each analyzed fraction (i.e., gel slice) and individual Sequest searches were performed for each fraction. […]

Sequence of PDIA1 (P07237 18-508): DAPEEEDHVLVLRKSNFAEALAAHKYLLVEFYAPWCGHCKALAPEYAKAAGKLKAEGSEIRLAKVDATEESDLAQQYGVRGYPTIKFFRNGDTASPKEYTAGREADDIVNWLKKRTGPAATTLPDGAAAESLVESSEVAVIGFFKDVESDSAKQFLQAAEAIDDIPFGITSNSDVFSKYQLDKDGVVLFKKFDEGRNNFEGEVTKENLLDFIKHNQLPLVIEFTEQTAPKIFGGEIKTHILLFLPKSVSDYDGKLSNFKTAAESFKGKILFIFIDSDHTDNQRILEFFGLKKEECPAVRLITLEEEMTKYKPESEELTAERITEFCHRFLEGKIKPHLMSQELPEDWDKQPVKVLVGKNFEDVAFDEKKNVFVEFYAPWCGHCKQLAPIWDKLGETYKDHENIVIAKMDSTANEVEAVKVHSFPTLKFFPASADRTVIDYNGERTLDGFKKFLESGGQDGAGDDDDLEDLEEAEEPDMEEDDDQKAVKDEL

NC(CC1CNc2ccccc21)C(=O)NCCCOc1ccc(N2C(=O)/C(=C/c3ccc([N+](=O)[O-])s3)SC2=S)cc1 (stereo not drawn) [CCF642-34]
potency in restricting colony formation of RPMI-8226 compared to CD34+ HSPCs [1]: 20 fold | TRIB3 upregulation compared to controls [2]: ~20 fold | number of downregulated genes [2]: 156 genes | number of upregulated genes [2]: 206 genes | number of genes with changed expression compared to vehicle control ([2]; 2-fold change, p less than 0.05): 362 genes | binding selectivity in MM1.S cells [3]: remarkable selectivity for PDIA1
